**Q.** Which logP does the source give for `CCCC1OCSC1=NOC(=O)NC` (centres undefined) here?
**A.** 1.52

**Q.** With `CNC(=O)ON=C1SCSC1C` (centres undefined) as the compound, how does the logP read?
**A.** 0.91

**Q.** With `CNC(=O)ON=C1SCOC1C` (centres undefined) as the compound, how does the logP read?
**A.** 0.46

**Q.** Which logP does the source give for `CNC(=O)ON=C1SC(C)OC1C` (centres undefined) here?
**A.** 0.96

**Q.** With `CNC(=O)ON=C1SCSC1(C)C` as the compound, how does the logP read?
**A.** 1.31

**Q.** For `CNC(=O)ON=C1COCS1`, which logP is on record?
**A.** 0.06

**Q.** Which logP does the source give for `CNC(=O)ON=C1SCOC1(C)C` here?
**A.** 0.82

**Q.** Which logP does the source give for `CNC(=O)ON=C1CSCS1` here?
**A.** 0.51

**Q.** For `CNC(=O)ON=C1COCCS1`, which logP is on record?
**A.** 0

**Q.** For `CNC(=O)ON=C1SCCSC1(C)C`, which logP is on record?
**A.** 1.51

**Q.** For `CNC(=O)ON=C1CSCCS1`, which logP is on record?
**A.** 0.49

**Q.** With `CNC(=O)ON=C1SCOC1C(C)C` (centres undefined) as the compound, how does the logP read?
**A.** 1.48

**Q.** Which logP does the source give for `CNC(=O)ON=C1CSC(C)(C)S1` here?
**A.** 1.33

**Q.** For `CNC(=O)ON=C1SCOC1CCOC` (centres undefined), which logP is on record?
**A.** 0.51

Source: the OPERA property sets (Mansouri et al. 2018)
